# Legend:
# Format in all cases: in vivo
# [1] = system: apple flowers; test: Frost damage on apple flowers, naturally occurring frost event
# Excerpt: To study the effect of compounds I used in accordance with the invention, flower buds or flowers of various apple varieties were sprayed to run-off point at different stages and different points in time with prohexadione-calcium in the form of the commercial preparation Regalis® from BASF AG in the form of 10% strength granules with 250 ppm of active substance or with a mixture of vitamin E and glycerol (see treatments a) to d)) and subjected to a naturally occurring or simulated frost event during mid-bloom. The treated flowering branches and untreated flowering branches which had been subjected to the same frost event and which acted as control, were subsequently transferred for 2 to 4 days into a greenhouse with temperatures ranging from 15 to 25° C., and the floral injury was assessed. Apple branches with flower buds or flowers (R. Cox) were treated as described under a.3), b.3), c.3) or d.3) and subsequently subjected to a naturally occurring frost event. The frost period lasted 5 days. The lowest temperature was reached on day two of the frost event and was −4° C. One day after the frost event, the treated flowering branches and untreated control branches were cut off. One day after the branches had been cut off, the floral damage was assessed by examining the individual flowers. At the time of evaluation, the flowers were in floral stage BBCH 56-57. Apple branches with flower buds or flowers (Jonagold) were treated analogously to Example 1.2.1 and exposed to the same frost event. At the time of evaluation, the flowers were in floral stage BBCH 57-59. Apple branches with flower buds or flowers (Boskoop) were treated as described under a.4), b.4), c.4) or d.4) and subsequently subjected to a naturally occurring frost event. The frost period lasted for one day. The lowest temperature was −1.2° C. Two days after the frost event, the treated flowering branches and untreated control branches were cut off, and one day after the branches had been cut off, the floral damage was assessed by examining the individual flowers. At the time of evaluation, the flowers were in floral stage BBCH 57-61.
# [2] = system: apple seedlings; test: Photochemical efficacy of electron transport (Fv/Fm, PAM fluorometer) in apple seedlings after simulated frost event; settings: Golden Delicious seedlings
# Procedure: Intact photosynthesis in leaves and other green plant tissues is of utmost importance for frost resistance and the intensity of the subsequent regeneration processes. To study the effect of compounds I which were used in accordance with the invention, the photosynthesis rate of treated (a.5) to (e.5)) and untreated apple seedlings which had been subjected to a simulated frost event was determined.
# The material used for the experiments was apple seedlings which had been grown from seeds of Golden Delicious apples following cold stratification under controlled-environment cabinet conditions (temperature approx. 20° C.; relative atmospheric humidity approx. […]; day:night=10.5:13.5 hours; light intensity approx. 200 μmol m^−2 s^−1) and which had three to four fully formed leaves at the point in time of treatment. Batches of 10 plants per combination were treated as follows:
# To simulate the frost event, the plants were subjected to the following chill program: • removal from the controlled-environment cabinet (20° C.) • transfer into the chill cell to randomized positions at a height of approximately 40 cm for approx. 6 hours at 12° C. • 2 hours at 4° C. • 1.5 hours at 2° C. • 1 hour at 0° C. • 3.5 hours at −3° C. • controlled-environment cabinet (20° C.)
# The photosynthesis rate of the stressed apple seedlings was subsequently determined with the aid of a pulse amplitude modulation fluorometer (PAM 2000, Heinz Walz GmbH, Effeltrich). The quotient Fv/Fm, which is determined, describes the amount of light energy captured by the photosynthesis apparatus of the plants which can be exploited for the production of assimilates. Fv represents the variable fluorescence, which corresponds to the difference between F0 (basal fluorescence, which is measured when a dark-adapted leaf is irradiated with fluorescence-exciting light) and Fm (maximum fluorescence of a dark-adapted leaf) (Fv/Fm=(Fm−F0)/Fm).
# [3] = system: apple flowers; test: Frost damage on apple flowers, simulated frost event
# Excerpt: To study the effect of compounds I used in accordance with the invention, flower buds or flowers of various apple varieties were sprayed to run-off point at different stages and different points in time with prohexadione-calcium in the form of the commercial preparation Regalis® from BASF AG in the form of 10% strength granules with 250 ppm of active substance or with a mixture of vitamin E and glycerol (see treatments a) to d)) and subjected to a naturally occurring or simulated frost event during mid-bloom. The treated flowering branches and untreated flowering branches which had been subjected to the same frost event and which acted as control, were subsequently transferred for 2 to 4 days into a greenhouse with temperatures ranging from 15 to 25° C., and the floral injury was assessed. Apple branches with flower buds or flowers (R. Cox) were treated as specified under a.1), b.1), c.1) or d.1) and subsequently subjected to a simulated frost event. Nine days (a.1)) or one day (b.1)-d.1)) after the treatment, the treated flowering branches and untreated control branches were cut off and subjected to a simulated frost event. The temperature program of the simulated frost event was as follows: • chilling from 12° C. to 4° C. within 30 minutes • one hour at 4° C. • chilling from 4° C. to 2° C. within 15 minutes • 75 minutes at 2° C. • chilling from 2° C. to −3° C. within 30 minutes • 150 minutes at −3° C. Two days after the frost event, the floral damage was assessed by examining the individual flowers. At the time of evaluation, the flowers were in the floral stage BBCH 54-56 (BBCH=Biologische Bundesanstalt für Land- und Forstwirtschaft, Bundessortenamt und Chemische Industrie [Federal Biological Institute for Agriculture and Forestry, Federal Office for Crop Plant Varieties, Chemical Industry]). Those flowers whose ovary is brownish in color are considered as damaged (destroyed). The data which represent the percentage of damaged flowers correspond to the mean±standard deviation. A statistically significant difference (critical difference: 5%) between the means of the various measurement series is identified by different letters. Apple branches with flower buds or flowers (R. Cox) were treated analogously to Example 1.1.1, but remained for 210 minutes in the frost chamber at −3° C. Apple branches with flower buds or flowers (Jonagold) were treated analogously to Example 1.1.1. They remained for 150 minutes in the frost chamber at −3° C. At the time of evaluation, the flowers were in floral stage BBCH 56-57. Apple branches with flower buds or flowers (Jonagold) were treated analogously to Example 1.1.3, but remained for 210 minutes in the frost chamber at −3° C. Apple branches with flower buds or flowers (Gala) were treated as described under a.2), b.2), c.2) or d.2) and subsequently subjected to a simulated frost event. 11 days (a.2)) or two days (b.2)-d.2)) after the treatment, the treated flowering branches and untreated control branches were cut off and subjected to a simulated frost event. The temperature program of the simulated frost event corresponded to the one in Example 1.1.1. Four days after the frost event, the floral damage was assessed by examining the individual flowers. At the time of evaluation, the flowers were in floral stage BBCH 57-59. Apple branches with flower buds or flowers (Boskoop) were treated analogously to Example 1.1.5. At the time of evaluation, the flowers were in floral stage BBCH 59-61. They remained at −3° C. for 150 minutes.
structure (smiles),measurement,setting,value
CCC(=O)C1=C([O-])CC(C(=O)[O-])CC1=O.[Ca+2] (centres unmarked) [prohexadione-calcium],Percentage of damage to flowers,"[1]; Boskoop, buds sprayed thirteen days prior to natural frost, prohexadione-calcium 250 ppm, frost one day, lowest −1.2° C., mean±SD",84.3 ± 3.3%
same,Percentage of damage to flowers,"[1]; Boskoop, flowers (mid-bloom) sprayed five days prior to natural frost, prohexadione-calcium 250 ppm, frost one day, lowest −1.2° C., mean±SD",significantly fewer
same,Percentage of damage to flowers,"[1]; Boskoop, flowers (mid-bloom) sprayed five days prior to natural frost; prohexadione-calcium 250 ppm; frost one day, lowest −1.2° C.; mean±SD; listed as b.4)",74.7 ± 3.0%
same,Percentage of damage to flowers,"[1]; Jonagold, buds sprayed ten days prior to natural frost, prohexadione-calcium 250 ppm, frost period 5 days, lowest −4° C., mean±SD",67.5 ± 2.3%
same,Percentage of damage to flowers,"[1]; Jonagold, flowers (mid-bloom) sprayed two days prior to natural frost, prohexadione-calcium 250 ppm, frost period 5 days, lowest −4° C., mean±SD",67.7 ± 2.6%
same,Percentage of damage to flowers,"[1]; R. Cox, buds sprayed ten days prior to natural frost, prohexadione-calcium 250 ppm, frost period 5 days, lowest −4° C., mean±SD",reduced floral damage
same,Percentage of damage to flowers,"[1]; R. Cox; buds sprayed ten days prior to natural frost; prohexadione-calcium 250 ppm; frost period 5 days, lowest −4° C.; mean±SD; listed as a.3)",88.3 ± 1.3%
same,Percentage of damage to flowers,"[1]; R. Cox, flowers (mid-bloom) sprayed two days prior to natural frost, prohexadione-calcium 250 ppm, frost period 5 days, lowest −4° C., mean±SD",reduced floral damage
same,Percentage of damage to flowers,"[1]; R. Cox, flowers (mid-bloom) sprayed two days prior to natural frost; prohexadione-calcium 250 ppm; frost period 5 days, lowest −4° C.; mean±SD; listed as b.3)",76.6 ± 1.7%
same,Fv/Fm,"[2]; sprayed 2 days prior to simulated frost (3.5 hours at −3° C.), prohexadione-calcium 50 ppm, 24 hours after frost",survived the frost event virtually undamaged
same,Fv/Fm,[2]; sprayed 2 days prior to simulated frost (3.5 hours at −3° C.); prohexadione-calcium 50 ppm; 24 hours after frost; listed as c.5),0.804
same,Fv/Fm,"[2]; sprayed 8 days prior to simulated frost (3.5 hours at −3° C.), 50 ppm prohexadione-calcium, 24 hours after frost",survived the frost event virtually undamaged
same,Fv/Fm,[2]; sprayed 8 days prior to simulated frost (3.5 hours at −3° C.); 50 ppm prohexadione-calcium; 24 hours after frost; listed as b.5),0.809
same,Fv/Fm,"[2]; sprayed 21 days prior to simulated frost (3.5 hours at −3° C.), 50 ppm prohexadione-calcium, 24 hours after frost",survived the frost event virtually undamaged
same,Fv/Fm,[2]; sprayed 21 days prior to simulated frost (3.5 hours at −3° C.); 50 ppm prohexadione-calcium; 24 hours after frost; listed as a.5),0.812
same,Percentage of damage to flowers,"[3]; Boskoop, buds sprayed eleven days prior to simulated frost, prohexadione-calcium 250 ppm, 150 minutes at −3° C., mean±SD",significantly fewer
same,Percentage of damage to flowers,[3]; Boskoop; buds sprayed eleven days prior to simulated frost; prohexadione-calcium 250 ppm; 150 minutes at −3° C.; mean±SD; listed as a.2),33.6 ± 4.1%
same,Percentage of damage to flowers,"[3]; Boskoop, flowers (mid-bloom) sprayed two days prior to simulated frost, prohexadione-calcium 250 ppm, 150 minutes at −3° C., mean±SD",significantly fewer
same,Percentage of damage to flowers,"[3]; Boskoop, flowers (mid-bloom) sprayed two days prior to simulated frost; prohexadione-calcium 250 ppm; 150 minutes at −3° C.; mean±SD; listed as b.2)",36.8 ± 4.2%
same,Percentage of damage to flowers,"[3]; Gala, buds sprayed eleven days prior to simulated frost, prohexadione-calcium 250 ppm, 150 minutes at −3° C., assessed four days after frost, mean±SD",tends to reduce the damage
same,Percentage of damage to flowers,[3]; Gala; buds sprayed eleven days prior to simulated frost; prohexadione-calcium 250 ppm; 150 minutes at −3° C.; assessed four days after frost; mean±SD; listed as a.2),5.2 ± 1.8%
same,Percentage of damage to flowers,"[3]; Gala, flowers (mid-bloom) sprayed two days prior to simulated frost, prohexadione-calcium 250 ppm, 150 minutes at −3° C., assessed four days after frost, mean±SD",8.8 ± 2.5%
same,Percentage of damage to flowers,"[3]; Jonagold, buds sprayed nine days prior to simulated frost, prohexadione-calcium 250 ppm, 150 minutes at −3° C., mean±SD",significantly fewer
same,Percentage of damage to flowers,[3]; Jonagold; buds sprayed nine days prior to simulated frost; prohexadione-calcium 250 ppm; 150 minutes at −3° C.; mean±SD; listed as a.1),54.4 ± 3.2%
same,Percentage of damage to flowers,"[3]; Jonagold, buds sprayed nine days prior to simulated frost, prohexadione-calcium 250 ppm, 210 minutes at −3° C., mean±SD",significantly less damage
same,Percentage of damage to flowers,[3]; Jonagold; buds sprayed nine days prior to simulated frost; prohexadione-calcium 250 ppm; 210 minutes at −3° C.; mean±SD; listed as a.1),43.8 ± 4.2%
same,Percentage of damage to flowers,"[3]; Jonagold, flowers (mid-bloom) sprayed one day prior to simulated frost, prohexadione-calcium 250 ppm, 150 minutes at −3° C., mean±SD",69.0 ± 2.9%
same,Percentage of damage to flowers,"[3]; Jonagold, flowers (mid-bloom) sprayed one day prior to simulated frost, prohexadione-calcium 250 ppm, 210 minutes at −3° C., mean±SD",significantly less damage
same,Percentage of damage to flowers,"[3]; Jonagold, flowers (mid-bloom) sprayed one day prior to simulated frost; prohexadione-calcium 250 ppm; 210 minutes at −3° C.; mean±SD; listed as b.1)",66.0 ± 2.7%
same,Percentage of damage to flowers,"[3]; R. Cox, buds sprayed nine days prior to simulated frost, prohexadione-calcium 250 ppm, 210 minutes at −3° C., mean±SD",significantly fewer
same,Percentage of damage to flowers,[3]; R. Cox; buds sprayed nine days prior to simulated frost; prohexadione-calcium 250 ppm; 210 minutes at −3° C.; mean±SD; listed as a.1),6.0 ± 1.2%
same,Percentage of damage to flowers,"[3]; R. Cox, buds sprayed to run-off nine days prior to simulated frost, prohexadione-calcium 250 ppm, 150 minutes at −3° C., assessed two days after frost, mean±SD",significantly fewer
same,Percentage of damage to flowers,[3]; R. Cox; buds sprayed to run-off nine days prior to simulated frost; prohexadione-calcium 250 ppm; 150 minutes at −3° C.; assessed two days after frost; mean±SD; listed as a.1),15.6 ± 2.5%
same,Percentage of damage to flowers,"[3]; R. Cox, flowers (mid-bloom) sprayed one day prior to simulated frost, prohexadione-calcium 250 ppm, 210 minutes at −3° C., mean±SD",33.3 ± 2.6%
same,Percentage of damage to flowers,"[3]; R. Cox, flowers (mid-bloom) sprayed to run-off one day prior to simulated frost, prohexadione-calcium 250 ppm, 150 minutes at −3° C., assessed two days after frost, mean±SD",23.1 ± 2.4%

# From patent US7686975B2, “Use of acylcyclohexanedione derivatives for improving the tolerance of plants to cold and/or frost” (BASF Aktiengesellschaft, priority 2003, dated 2010)
